Measured values published in patent US20240398811A1, “PRC2 INHIBITORS FOR USE IN TREATING BLOOD DISORDERS” (ORIC Pharmaceuticals, Inc., priority 2021, published 2024).

What was measured:
[1] = biological target: purified human, His-tagged PRC2 complex (Homo sapiens (Human), UniProt O75530); assay: Hot Spot HMT assay, inhibition of PRC2 enzymatic activity; format: biochemical; conditions: 10 nM PRC2 complex, 1 μM 3H-SAM, core histone H3, 10-point dose-response
Summary of the method: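 Five-subunit PRC2 complex (EZH2, EED, SUZ12, AEBP2, RbAp48; 10 nM) preincubated 20 min at 30° C with compound (top 1.0 μM) and 0.05 mg/ml core histone H3 in Tris-HCl, 1% DMSO. Started with 1 μM [3H]SAM, 1 hr at 30° C; tritiated H3 measured by filter binding and scintillation.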

[2] = system: bone marrow derived CD34+ cells differentiated into erythroid progenitor cells; assay: Percentage of F cells (fetal hemoglobin containing cells) by flow cytometry in differentiated CD34+ cells; format: cell-based, human; conditions: 20 μM, 7-day treatment, vs vehicle
Excerpt: (§1) Cell Culture and differentiation protocol. Human bone marrow derived CD34+ cells from healthy donors were purchased from StemCell (#70002.2). The CD34+ cells were differentiated using the STEMdiff™ Erythroid kit (StemCell #100-0074) according to manufacturer's instructions. The CD34+ cells were differentiated for 14 days, and the differentiation medium consisted of StemSpan™ SFEM II media and 10% of STEMdiff™ Erythroid Supplement E2 (10×). The CD34+ cells were thawed and plated in a 12-well plate (Corning #3512) at a density of 40,000 cells/well in 1 mL of differentiation media. 100 μL of STEMdiff™ Erythroid Supplement E2 (10×) was added to each well on Day 2, 4, 9 and 11 during differentiation. On day 7, cells were passaged and replated at a density of 167,000 cells/well in a 12-well plate. Flow cytometry was performed every 7 days to assess the stages of differentiation using anti-human CD71 and anti-human glycophorin A (CD235a) antibody (StemCell #60106AZ; #60152FI).
(§2) Treatment of differentiated CD34+ cells with compound Example 32 or hydroxyurea (HU). After 14 days of differentiation, cells were plated in a 12-well plate at a density of 150,000 cells/well in 1 mL differentiation media in quadruplets. The next day, cells were treated with vehicle, 7 concentrations of compound Example 32 in concentrations ranging from 15.625 nM to 1 μM ([…] serial dilution) and 20 μM of HU. 100 μL of STEMdiff™ Erythroid Supplement E2 (10×) was added to each well on Day 2 and 4. Cells were treated with vehicle, compound Example 32, or HU for 7 days and were then harvested for RT-qPCR and flow cytometry.
Flow Cytometry. The cell pellets harvested for flow cytometry analysis were collected in a V-shaped 96-well polypropylene plate (ThermoFisher #249944). The cells were washed with PBS and resuspended in 100 μL of PBS. The cells were first stained with eFluor 450 viability dye (diluted 1:250 in cold PBS; Invitrogen #65-0863-14) for 5 minutes on ice in the dark followed by incubation in Fc receptor blocking solution for 10 minutes (BioLegend #422302). […] Cells were washed twice and resuspended in FACS buffer and then analyzed by flow cytometry. Data was acquired using SONY SA3800 cytometer (software version 2.0.4.13263) and analyzed using FlowJo.
Bone marrow derived CD34+ cells from two healthy human donors (donor A and donor B) were differentiated into erythroid progenitor cells (erythroblasts) expressing Glycophorin A and CD71. Fourteen-day differentiated cells were then treated with vehicle (veh), different concentrations of compound Example 32, or 20 μM HU for 7 days and cells were analyzed for increase in fetal hemoglobin levels at both mRNA and protein levels. […]

HBG1 mRNA = HBG1 mRNA levels by RT-qPCR in differentiated CD34+ cells; format: cell-based, human; conditions: Donor B, 20 μM, 7-day treatment, relative to vehicle
Excerpt: as §1, §2
(§3) RNA extraction and RT-qPCR analysis. The cell pellets harvested for mRNA analysis were first washed once with PBS and then resuspended in 600 μL of RLT lysis buffer (from the Qiagen kit) supplemented with 1% of beta-mercaptoethanol (Sigma-Aldrich #M6250). […] The extracted RNA was then quantified using a NanoDrop™ 8000 Spectrophotometer (ThermoFisher #ND8000-GL, software version 2.3.2). […]

HBG2 mRNA = HBG2 mRNA levels by RT-qPCR in differentiated CD34+ cells; format: cell-based, human; conditions: Donor A, 20 μM, 7-day treatment, relative to vehicle
Excerpt: as §1, §2, §3

purified human, His-tagged PRC2 complex, sequence (O75530 whole entry): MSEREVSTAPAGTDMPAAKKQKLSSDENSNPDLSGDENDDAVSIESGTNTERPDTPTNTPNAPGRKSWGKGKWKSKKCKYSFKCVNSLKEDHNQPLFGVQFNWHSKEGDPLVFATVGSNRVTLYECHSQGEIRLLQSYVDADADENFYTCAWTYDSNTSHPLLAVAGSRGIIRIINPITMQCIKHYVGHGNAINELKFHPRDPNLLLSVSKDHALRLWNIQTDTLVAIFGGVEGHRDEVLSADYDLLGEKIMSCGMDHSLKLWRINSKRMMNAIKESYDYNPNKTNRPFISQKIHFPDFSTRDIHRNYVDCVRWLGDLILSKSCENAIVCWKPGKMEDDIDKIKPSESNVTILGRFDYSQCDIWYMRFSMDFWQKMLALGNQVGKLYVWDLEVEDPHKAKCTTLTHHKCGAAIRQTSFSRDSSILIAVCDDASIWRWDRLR
purified human, His-tagged PRC2 complex, sequence (Q15910 whole entry partner): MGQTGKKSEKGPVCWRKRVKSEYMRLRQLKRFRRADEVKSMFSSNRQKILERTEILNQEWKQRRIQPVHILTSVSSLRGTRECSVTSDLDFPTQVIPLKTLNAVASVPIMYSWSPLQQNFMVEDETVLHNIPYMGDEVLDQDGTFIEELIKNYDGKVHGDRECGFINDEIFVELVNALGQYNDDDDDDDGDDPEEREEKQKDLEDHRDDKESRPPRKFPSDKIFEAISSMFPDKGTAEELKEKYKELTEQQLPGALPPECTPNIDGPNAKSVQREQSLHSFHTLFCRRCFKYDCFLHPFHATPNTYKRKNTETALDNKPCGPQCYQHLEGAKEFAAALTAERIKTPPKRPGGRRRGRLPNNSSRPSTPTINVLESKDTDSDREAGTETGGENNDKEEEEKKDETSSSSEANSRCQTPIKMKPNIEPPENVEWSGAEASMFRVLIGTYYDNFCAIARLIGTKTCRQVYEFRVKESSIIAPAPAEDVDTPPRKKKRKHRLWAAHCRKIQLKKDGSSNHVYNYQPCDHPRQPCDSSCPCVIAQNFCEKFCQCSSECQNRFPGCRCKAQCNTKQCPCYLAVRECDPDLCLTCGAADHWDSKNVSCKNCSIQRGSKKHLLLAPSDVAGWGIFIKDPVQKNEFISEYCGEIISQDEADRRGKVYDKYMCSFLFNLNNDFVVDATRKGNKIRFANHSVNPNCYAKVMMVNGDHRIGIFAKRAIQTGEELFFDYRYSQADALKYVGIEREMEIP
purified human, His-tagged PRC2 complex, sequence (Q15022 whole entry partner): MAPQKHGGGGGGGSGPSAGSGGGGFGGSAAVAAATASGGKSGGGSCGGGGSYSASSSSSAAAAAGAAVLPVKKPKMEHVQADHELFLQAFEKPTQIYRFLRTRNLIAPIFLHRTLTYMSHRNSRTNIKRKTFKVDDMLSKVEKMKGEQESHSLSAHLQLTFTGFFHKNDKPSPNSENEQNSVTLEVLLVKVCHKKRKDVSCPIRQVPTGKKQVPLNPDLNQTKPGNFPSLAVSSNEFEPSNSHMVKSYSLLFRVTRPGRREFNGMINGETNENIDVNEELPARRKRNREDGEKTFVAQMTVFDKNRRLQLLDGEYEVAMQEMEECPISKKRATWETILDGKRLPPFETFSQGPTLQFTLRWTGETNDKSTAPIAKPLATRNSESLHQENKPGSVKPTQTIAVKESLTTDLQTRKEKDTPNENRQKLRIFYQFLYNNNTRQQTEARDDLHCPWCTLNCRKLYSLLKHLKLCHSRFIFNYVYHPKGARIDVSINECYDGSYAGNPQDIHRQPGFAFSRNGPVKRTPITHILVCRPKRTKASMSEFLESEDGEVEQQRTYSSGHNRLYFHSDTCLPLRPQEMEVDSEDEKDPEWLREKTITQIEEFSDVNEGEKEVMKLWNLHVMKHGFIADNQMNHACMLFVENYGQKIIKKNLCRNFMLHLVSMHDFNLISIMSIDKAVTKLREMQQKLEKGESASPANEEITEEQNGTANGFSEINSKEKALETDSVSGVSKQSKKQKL
purified human, His-tagged PRC2 complex, sequence (Q6ZN18 whole entry partner): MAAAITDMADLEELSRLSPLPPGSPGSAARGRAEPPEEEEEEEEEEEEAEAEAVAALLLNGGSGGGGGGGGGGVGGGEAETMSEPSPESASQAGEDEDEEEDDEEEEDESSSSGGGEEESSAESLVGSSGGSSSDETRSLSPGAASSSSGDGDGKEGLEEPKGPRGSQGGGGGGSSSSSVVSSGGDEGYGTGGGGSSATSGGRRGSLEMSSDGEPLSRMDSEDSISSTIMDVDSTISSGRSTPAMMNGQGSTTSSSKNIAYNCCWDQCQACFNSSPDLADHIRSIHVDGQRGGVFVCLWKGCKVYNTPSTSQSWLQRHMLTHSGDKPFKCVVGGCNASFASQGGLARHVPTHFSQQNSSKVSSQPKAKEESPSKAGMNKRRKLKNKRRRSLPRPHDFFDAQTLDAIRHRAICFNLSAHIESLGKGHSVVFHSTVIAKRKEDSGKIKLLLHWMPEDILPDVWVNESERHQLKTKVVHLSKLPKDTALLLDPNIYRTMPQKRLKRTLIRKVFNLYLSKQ
purified human, His-tagged PRC2 complex, sequence (Q09028 whole entry partner): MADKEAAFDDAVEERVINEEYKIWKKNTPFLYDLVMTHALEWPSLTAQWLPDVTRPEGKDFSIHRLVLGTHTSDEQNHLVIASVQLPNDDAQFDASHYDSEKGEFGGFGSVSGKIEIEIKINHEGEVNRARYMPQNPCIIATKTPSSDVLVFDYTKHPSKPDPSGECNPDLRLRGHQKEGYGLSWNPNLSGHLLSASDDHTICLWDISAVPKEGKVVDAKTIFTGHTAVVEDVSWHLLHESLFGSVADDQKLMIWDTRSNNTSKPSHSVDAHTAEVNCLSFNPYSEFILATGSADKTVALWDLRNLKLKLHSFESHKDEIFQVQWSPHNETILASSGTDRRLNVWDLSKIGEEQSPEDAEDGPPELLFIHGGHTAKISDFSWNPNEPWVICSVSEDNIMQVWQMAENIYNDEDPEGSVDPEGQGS

SMILES	IC50 [1]	other results
CN(C)Cc1ncc(-c2cnc(NCc3c(F)ccc4c3CCO4)n3cc(C#N)nc23)cn1 [Example 216, 8-(2-((dimethylamino)methyl)pyrimidin-5-yl)-5-(((5-fluoro-2,3-dihydrobenzofuran-4-yl)methyl)amino)imidazo[1,2-c]pyrimidine-2-carbonitrile]	< 100 nM	
CN(C)CCc1cccc(-c2cnc(NCc3c(F)ccc4c3CCO4)n3cc(C#N)nc23)c1 [Example 217, 8-(3-(2-(dimethylamino)ethyl)phenyl)-5-(((5-fluoro-2,3-dihydrobenzofuran-4-yl)methyl)amino)imidazo[1,2-c]pyrimidine-2-carbonitrile]	< 100 nM	
N#Cc1cn2c(NCc3c(F)ccc4c3CCO4)ncc(-c3cc[nH]c(=O)c3)c2n1 [Example 218, 5-(((5-fluoro-2,3-dihydrobenzofuran-4-yl)methyl)amino)-8-(2-oxo-1,2-dihydropyridin-4-yl)imidazo[1,2-c]pyrimidine-2-carbonitrile]	< 100 nM	
N#Cc1cn2c(NCc3c(F)ccc4c3CCO4)ncc(-c3ccc([C@@H]4CCCN4)cc3)c2n1 [Example 219, (S)-5-(((5-fluoro-2,3-dihydrobenzofuran-4-yl)methyl)amino)-8-(4-(pyrrolidin-2-yl)phenyl)imidazo[1,2-c]pyrimidine-2-carbonitrile]	< 100 nM	
N#Cc1cn2c(NCc3c(F)ccc4c3CCO4)ncc(-c3ccc([C@H]4CCCN4)cc3)c2n1 [Example 220, (R)-5-(((5-fluoro-2,3-dihydrobenzofuran-4-yl)methyl)amino)-8-(4-(pyrrolidin-2-yl)phenyl)imidazo[1,2-c]pyrimidine-2-carbonitrile]	100 to 500 nM	
CN1CCC1c1ccc(-c2cnc(NCc3c(F)ccc4c3CCO4)n3cc(C#N)nc23)cc1 (stereo not drawn) [Example 221, 5-(((5-fluoro-2,3-dihydrobenzofuran-4-yl)methyl)amino)-8-(4-(1-methylazetidin-2-yl)phenyl)imidazo[1,2-c]pyrimidine-2-carbonitrile]	< 100 nM	
N#Cc1cn2c(NCc3c(F)ccc4c3CCO4)ncc(-c3ccc(C4CC(=O)N4)cc3)c2n1 (stereo not drawn) [Example 222, 5-(((5-fluoro-2,3-dihydrobenzofuran-4-yl)methyl)amino)-8-(4-(4-oxoazetidin-2-yl)phenyl)imidazo[1,2-c]pyrimidine-2-carbonitrile]	< 100 nM	
[2H]C1Oc2ccc(F)c(C([2H])([2H])Nc3ncc(-c4ccc(CN(C)C)cc4C)c4nc(C#N)cn34)c2C1[2H] (stereo not drawn) [Example 223, 8-(4-((dimethylamino)methyl)-2-methylphenyl)-5-(((5-fluoro-2,3-dihydrobenzofuran-4-yl-2,3-d2)methyl-d2)amino)imidazo[1,2-c]pyrimidine-2-carbonitrile]	< 100 nM	
Cn1cc(-c2cnc(NCc3c(F)ccc4c3CCO4)n3cc(C#N)nc23)c(C#N)n1 [Example 224, 8-(3-cyano-1-methyl-1H-pyrazol-4-yl)-5-(((5-fluoro-2,3-dihydrobenzofuran-4-yl)methyl)amino)imidazo[1,2-c]pyrimidine-2-carbonitrile]	100 to 500 nM	
N#Cc1cn2c(NCc3c(F)ccc4c3CCO4)ncc(-c3ccc(C4COCCN4)cc3)c2n1 (stereo not drawn) [Example 225, 5-(((5-fluoro-2,3-dihydrobenzofuran-4-yl)methyl)amino)-8-(4-(morpholin-3-yl)phenyl)imidazo[1,2-c]pyrimidine-2-carbonitrile]	< 100 nM	
N#Cc1cn2c(NCc3c(F)ccc4c3CCO4)ncc(-c3ccc(C4CCN4)cc3)c2n1 (stereo not drawn) [Example 226, 8-(4-(azetidin-2-yl)phenyl)-5-(((5-fluoro-2,3-dihydrobenzofuran-4-yl)methyl)amino)imidazo[1,2-c]pyrimidine-2-carbonitrile]	100 to 500 nM	
CN1CCOCC1c1ccc(-c2cnc(NCc3c(F)ccc4c3CCO4)n3cc(C#N)nc23)cc1 (stereo not drawn) [Example 227, 5-(((5-fluoro-2,3-dihydrobenzofuran-4-yl)methyl)amino)-8-(4-(4-methylmorpholin-3-yl)phenyl)imidazo[1,2-c]pyrimidine-2-carbonitrile]	< 100 nM	
CN1CCN(C(=O)c2cc(-c3cnc(NCc4c(F)ccc5c4CCO5)n4cc(C#N)nc34)n(C)n2)CC1 [Example 229, 5-(((5-fluoro-2,3-dihydrobenzofuran-4-yl)methyl)amino)-8-(1-methyl-3-(4-methylpiperazine-1-carbonyl)-1H-pyrazol-5-yl)imidazo[1,2-c]pyrimidine-2-carbonitrile]	< 100 nM	
CN(C)CCn1nccc1-c1cnc(NCc2c(F)ccc3c2CCO3)n2cc(C#N)nc12 [Example 230, 8-(1-(2-(dimethylamino)ethyl)-1H-pyrazol-5-yl)-5-(((5-fluoro-2,3-dihydrobenzofuran-4-yl)methyl)amino)imidazo[1,2-c]pyrimidine-2-carbonitrile]	< 100 nM	
N#Cc1cn2c(NCc3c(F)ccc4c3CCO4)ncc(-c3ccnn3CCO)c2n1 [Example 231, 5-(((5-fluoro-2,3-dihydrobenzofuran-4-yl)methyl)amino)-8-(1-(2-hydroxyethyl)-1H-pyrazol-5-yl)imidazo[1,2-c]pyrimidine-2-carbonitrile]	100 to 500 nM	
N#Cc1cn2c(NCc3c(F)ccc4c3CCO4)ncc(-c3n[nH]cc3Br)c2n1 [Example 232, 8-(4-bromo-1H-pyrazol-3-yl)-5-(((5-fluoro-2,3-dihydrobenzofuran-4-yl)methyl)amino)imidazo[1,2c]pyrimidine-2-carbonitrile]	100 to 500 nM	
Cc1c(-c2cnc(NCc3c(F)ccc4c3CCO4)n3cc(C#N)nc23)cnc(CN(C)C)c1F [Example 233, 8-(6-((dimethylamino)methyl)-5-fluoro-4-methylpyridin-3-yl)-5-(((5-fluoro-2,3-dihydrobenzofuran-4-yl)methyl)amino)imidazo[1,2-c]pyrimidine-2-carbonitrile]	< 100 nM	
NC(=O)NO [HU, hydroxyurea, reference compound]		fold increase in % F cells ([2]; Donor A): 1.9 fold; fold increase in % F cells ([2]; Donor B): 1.3 fold; fold increase in HBG1 mRNA levels (HBG1 mRNA): 1.7 fold; fold increase in HBG2 mRNA levels (HBG2 mRNA): 2.7 fold
